Source: patent US20230277831A1, “Focused Ultrasound Device” (Washington University, priority 2022, published 2023)

Assay: Evans blue delivery after FUS-BBBO, fluorescence imaging of brain sections
Type: in vivo, mice (C57BL/6)
Settings: mouse brain
Protocol: Following the FUS-BBBO treatment as described in Example 3, the brains of the mice were harvested and harvested sections were fluorescence imaged using an LI-COR imaging system (Pearl Trilogy; 700 Channel laser source (Ex 785 nm/Em 820 nm); resolution 85 μm). Enhanced fluorescence signals associated with the delivery of Evans blue through the FUS-disrupted BBB were determined by comparing sections from FUS-BBBO and corresponding untreated brain halves.
Evans Blue has been commonly used as a model drug for evaluating the FUS-BBBO drug delivery outcome. The harvested mouse brains were cut into 1-mm thick coronal sections using the mouse brain matrix (World Precision Instrument, Sarasota, Fla., USA). Fluorescence images of brain sections were taken using a LI-COR imaging system (Pearl Trilogy; 700 Channel laser source (Ex 785 nm/Em 820 nm); resolution 85 μm) and analyzed using Matlab (Mathworks, Natick, Mass., USA). […] Pixels with intensities above the background autofluorescence intensity were identified for each brain section. Evans blue delivery volume was calculated by the total number of pixels with enhanced fluorescence signal in all the brain sections. The mean fluorescence intensity of pixels with enhanced fluorescence signal in all the brain sections was calculated to represent the signal intensity of the delivered Evans blue.

## Cc1cc(-c2ccc(/N=N/c3ccc4c(S(=O)(=O)O)cc(S(=O)(=O)O)c(N)c4c3O)c(C)c2)ccc1/N=N/c1ccc2c(S(=O)(=O)O)cc(S(=O)(=O)O)c(N)c2c1O [Evans Blue]
FUS at 0.4 MPa and 0.57 MPa for all frequencies (1.5, 3.0, 6.0 MHz) and 0.2 MPa for 1.5 MHz
  Evans Blue extravasation: observed
FUS at 3.0 MHz and 6.0 MHz at 0.2 MPa
  Evans Blue extravasation: not detectable
i.v., FUS-BBBO at 1.5 MHz, 0.57 MPa (largest BBB opening volume), mean±SD
  Evans Blue delivery volume: 69±3.8 mm^3
i.v., FUS-BBBO at 1.5 MHz, 0.57 MPa, mean fluorescence intensity, mean±SD
  Evans Blue signal intensity: 47±8.2
i.v., FUS-BBBO at 6 MHz, 0.4 MPa (smallest BBB opening volume), mean±SD
  Evans Blue delivery volume: 8.9±1.3 mm^3
